Source: patent US9034887B2, “Dihydroorotate dehydrogenase as antifungal drug target and quinazolinone-based inhibitors thereof” (F2G Limited, priority 2008, dated 2015)
Converted amounts (≈) assume the structure as drawn.

Experiments:
Aspergillus niger [1] = experiment: MIC in YAG medium, A. niger; format: cell-based; details: 24 hrs at 35° C., >70% growth inhibition, read-out: MIC grade, A. niger
Experimental: (§1) Between 1 and 5 mgs of compound were accurately weighed out into a sterile Eppendorf tube. The compound was dissolved in DMSO to give a solution containing 5 mg/mL. Tubes were stored at −20° C. until required.
(§2) On the day of testing thawed solutions were vortex mixed to ensure homogeneity. 30 μL of solution was removed and added to 570 μL of sterile water in a separate sterile Eppendorf. The thoroughly mixed solution was used to prepare a series of doubling dilutions in water, in a deep well plate. Thirteen replicate plates were prepared using a Minitrak by aspirating 20 μL from each well into eleven clear polystyrene 96 well plates.
(§3) Spores of Aspergillus spp. (Aspergillus fumigatus [two strains], Aspergillus terreus [two strains], Aspergillus niger and Aspergillus flavus) were harvested from cultures grown on Sabarauds agar for 5 days, and resuspended in PBS/Tween 80 to approx 1×10^7 cfu/mL. Each organism suspension was diluted in YAG medium (1% glucose, 1% ammonium chloride and 0.5% yeast extract) to 0.5-2×10^4 cfu/mL. 80 μL of an organism suspension was added to each well of the plate containing drug dilutions.
(§4) All plates were incubated for 24 hrs at 35° C. Growth was assessed by monitoring the optical density at 485 nm for each well. The MIC of a compound is the lowest drug concentration that inhibits growth of an organism by >70% compared with a drug free control. MICs are recorded as mg/L. In cases where the MIC of an organism is […] the MIC is repeated using a concentration range of 0.5-0.0005 mg/L.

Aspergillus fumigatus = experiment: MIC in YAG medium, A. fumigatus; format: cell-based; details: 24 hrs at 35° C., >70% growth inhibition, read-out: MIC grade, A. fumigatus
Experimental: as §1, §2, §3, §4

Aspergillus terreus = experiment: MIC in YAG medium, A. terreus; format: cell-based; details: 24 hrs at 35° C., >70% growth inhibition, read-out: MIC grade, A. terreus
Experimental: as §1, §2, §3, §4

[2] = system: Aspergillus fumigatus AF293; experiment: MIC in RPMI medium, A. fumigatus; format: cell-based; details: 24-48 hrs at 35° C., >80% growth inhibition, read-out: MIC grade, A. fumigatus
Experimental: as §1, §2
(§5) Assays were also performed in RPMI medium. To perform MIC tests in this medium, dilutions of compounds are prepared in microtitre plates as described above. Fungal strains to be tested are grown and harvested in an identical manner to that described above, and each organism suspension was diluted in RPMI medium, containing 2% glucose and 0.135 M MOPS buffer (pH 7.0) to 0.5-2×10^4 cfu/mL, rather than in YAG medium. 80 μL of an organism suspension was added to each well of the plate containing drug dilutions.
(§6) All plates were incubated for 24-48 hrs at 35° C. Growth was assessed by monitoring the optical density at 485 nm for each well. […] The following organisms were tested: Aspergillus flavus, Aspergillus fumigatus AF293 and AF210, Aspergillus niger and Aspergillus terreus AT4 and AT49.

A. fumigatus 210 = experiment: MIC in YAG medium, A. fumigatus 210; format: cell-based; details: Aspergillus fumigatus, 24 hrs at 35° C., >70% growth inhibition, read-out: MIC grade, A. fumigatus 210
Experimental: as §1, §2, §3, §4

Aspergillus terreus AT4 = experiment: MIC in RPMI medium, A. terreus; format: cell-based; details: 24-48 hrs at 35° C., >80% growth inhibition, read-out: MIC grade, A. terreus
Experimental: as §1, §2, §5, §6

[3] = system: Aspergillus fumigatus AF210; experiment: MIC in RPMI medium, A. fumigatus 210; format: cell-based; details: 24-48 hrs at 35° C., >80% growth inhibition, read-out: MIC grade, A. fumigatus 210
Experimental: as §1, §2, §5, §6

Aspergillus flavus [4] = experiment: MIC in RPMI medium, A. flavus; format: cell-based; details: 24-48 hrs at 35° C., >80% growth inhibition, read-out: MIC grade, A. flavus
Experimental: as §1, §2, §5, §6

Aspergillus niger [5] = experiment: MIC in RPMI medium, A. niger; format: cell-based; details: 24-48 hrs at 35° C., >80% growth inhibition, read-out: MIC grade, A. niger
Experimental: as §1, §2, §5, §6

A. terreus 49 = experiment: MIC in YAG medium, A. terreus 49; format: cell-based; details: Aspergillus terreus, 24 hrs at 35° C., >70% growth inhibition, read-out: MIC grade, A. terreus 49
Experimental: as §1, §2, §3, §4

Aspergillus flavus [6] = experiment: MIC in YAG medium, A. flavus; format: cell-based; details: 24 hrs at 35° C., >70% growth inhibition, read-out: MIC grade, A. flavus
Experimental: as §1, §2, §3, §4

Aspergillus terreus AT49 = experiment: MIC in RPMI medium, A. terreus 49; format: cell-based; details: 24-48 hrs at 35° C., >80% growth inhibition, read-out: MIC grade, A. terreus 49
Experimental: as §1, §2, §5, §6

[7] = target: T1, Recombinant DHODH from human (Homo sapiens, UniProt Q02127); experiment: DHODH inhibition screen (DCIP reduction, 600 nm), human enzyme; format: biochemical; details: Table 3, read-out: IC50 values for Compound Examples 1 to 15 identified from screens, Human
T1 construct: His-tag; NusA (Nus-tag) fusion of vector pET43.1 (own knowledge of the vector) (N); made in house; host or cells: E. coli BL21 DE3
Experimental: (§7) 1. The following buffer and stock solution were prepared:
Coenzyme Q2 (Sigma) was dissolved in DMSO to give a concentration of 10 mg/ml. […] The stock solution was made with 127.36 μl DHO, 127.36 μl DCIP and 318.4 μl Coenzyme Q2, made up to 80 ml with Buffer A. Final concentrations in assay wells were; DHO, 500 μM; Coenzyme Q, 50 μM; DCIP, 100 μM.
2. […] Duplicate sets of plates were used such that one set received enzyme while a control set received no enzyme.
3. […] Then 20 μl of DHODH solution was added to all the +enzyme plates and 20 μl of Buffer A was added to all the control −enzyme plates.
(§8) 4. 20 μl of DHO/Coenzyme Q2/DCIP solution was added to all the wells, after which plates were incubated at room temperature for […] and then read on a Tecan Safire spectrophotometer at 600 nm.
(§9) Recombinant DHODH from human or C. albicans was assayed in the same way. It is necessary to adjust the enzyme concentration and reaction time to take into account variations in activity of enzyme batches, thus the incubation time was 20 minutes for the C. albicans enzyme and 34 minutes for the human enzyme.

[8] = target: Recombinant A. fumigatus DHODH (Aspergillus fumigatus, UniProt Q4X169); experiment: DHODH inhibition screen (DCIP reduction, 600 nm), A. fumigatus enzyme; format: biochemical
Experimental: as §7
Buffer A: 62.5 mM TrisHCl (pH8.0), 150 mM NaCl, 10% v/v glycerol
DHO/Coenzyme Q2/DCIP solution: 19.848 mg dihydroorotate (DHO; Sigma) was dissolved in 160 μl DMSO. Coenzyme Q2 (Sigma) was dissolved in DMSO to give a concentration of 10 mg/ml. 7.236 mg 2,6-dichloroindophenol (DCIP; Sigma) was dissolved in 160 μl DMSO. The stock solution was made with 127.36 μl DHO, 127.36 μl DCIP and 318.4 μl Coenzyme Q2, made up to 80 ml with Buffer A. Final concentrations in assay wells were; DHO, 500 μM; Coenzyme Q, 50 μM; DCIP, 100 μM.
2. Compounds were aliquotted into 384-well microtitre plates at a range of dilutions to give final concentrations in the assay of […]. Duplicate sets of plates were used such that one set received enzyme while a control set received no enzyme. Since compounds are frequently dissolved in DMSO or a DMSO/water mixture, assays were set up to give a final concentration of 1% (v/v) DMSO in wells.
3. Recombinant A. fumigatus DHODH was suspended in Buffer A to give a concentration of 1435.8 ng protein in 20 μl. Then 20 μl of DHODH solution was added to all the +enzyme plates and 20 μl of Buffer A was added to all the control −enzyme plates.
as §8
as §9, with “enzyme. Compounds are screened against a fungal and human enzyme to identify compounds which are selective for the fungal enzyme.” for “enzyme.”

Chain of Recombinant A. fumigatus DHODH (Q4X169 entry or part of it): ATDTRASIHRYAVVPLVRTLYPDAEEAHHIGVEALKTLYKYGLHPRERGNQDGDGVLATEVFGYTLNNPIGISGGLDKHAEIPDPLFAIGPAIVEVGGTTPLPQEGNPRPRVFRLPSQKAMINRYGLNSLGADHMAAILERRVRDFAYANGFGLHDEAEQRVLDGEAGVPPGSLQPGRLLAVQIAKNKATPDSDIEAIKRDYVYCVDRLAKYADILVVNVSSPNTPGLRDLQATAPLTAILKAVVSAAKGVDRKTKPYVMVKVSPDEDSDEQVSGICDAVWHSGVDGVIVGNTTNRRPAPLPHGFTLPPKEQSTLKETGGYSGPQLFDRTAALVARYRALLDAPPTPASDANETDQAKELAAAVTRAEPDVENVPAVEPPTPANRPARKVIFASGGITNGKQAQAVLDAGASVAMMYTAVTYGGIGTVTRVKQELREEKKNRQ
T1 sequence (Q02127 31-395 limits assumed): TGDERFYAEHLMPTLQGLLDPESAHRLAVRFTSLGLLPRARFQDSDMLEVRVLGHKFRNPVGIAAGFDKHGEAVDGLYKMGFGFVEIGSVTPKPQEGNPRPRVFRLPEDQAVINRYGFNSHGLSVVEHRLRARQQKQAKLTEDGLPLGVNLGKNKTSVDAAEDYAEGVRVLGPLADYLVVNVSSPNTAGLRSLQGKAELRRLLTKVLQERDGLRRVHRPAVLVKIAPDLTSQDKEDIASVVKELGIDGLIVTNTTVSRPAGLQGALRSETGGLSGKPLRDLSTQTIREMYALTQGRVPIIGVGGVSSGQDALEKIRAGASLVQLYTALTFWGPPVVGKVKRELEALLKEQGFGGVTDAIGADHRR

Structure (SMILES) | MIC (Aspergillus niger [1]) | MIC (Aspergillus fumigatus) | MIC (Aspergillus terreus) | MIC [2] | MIC (A. fumigatus 210) | MIC (Aspergillus terreus AT4) | MIC [3] | MIC (Aspergillus flavus [4]) | MIC (Aspergillus niger [5]) | MIC (A. terreus 49) | MIC (Aspergillus flavus [6]) | MIC (Aspergillus terreus AT49) | IC50 [7] | IC50 [8]
COc1ccccc1-n1c(SC(C)C)nc2cc(C)ccc2c1=O [Compound Example 1, 2-Isopropylsulfanyl-3-(2-methoxy-phenyl)-7-methyl-3H-quinazolin-4-one] | < 1 µg/mL | < 1 µg/mL | < 1 µg/mL | 1 to 10 µg/mL (≈ 2.94 to 29.4 µM) | < 1 µg/mL | < 1 µg/mL | 1 to 10 µg/mL (≈ 2.94 to 29.4 µM) | > 10 µg/mL | > 10 µg/mL | < 1 µg/mL | < 1 µg/mL | < 1 µg/mL | – | –
COc1ccccc1-n1c(SC(C)C)nc2ccc(C)cc2c1=O [Compound Example 2, 2-Isopropylsulfanyl-3-(2-methoxy-phenyl)-6-methyl-3H-quinazolin-4-one] | < 1 µg/mL | < 1 µg/mL | < 1 µg/mL | 1 to 10 µg/mL (≈ 2.94 to 29.4 µM) | < 1 µg/mL | > 10 µg/mL | 1 to 10 µg/mL (≈ 2.94 to 29.4 µM) | > 10 µg/mL | < 1 µg/mL | < 1 µg/mL | > 10 µg/mL | 1 to 10 µg/mL (≈ 2.94 to 29.4 µM) | – | –
COc1ccccc1-n1c(SC(C)C)nc2cccc(C)c2c1=O [Compound Example 3, 2-Isopropylsulfanyl-3-(2-methoxy-phenyl)-5-methyl-3H-quinazolin-4-one] | < 1 µg/mL | < 1 µg/mL | < 1 µg/mL | 1 to 10 µg/mL (≈ 2.94 to 29.4 µM) | < 1 µg/mL | > 10 µg/mL | 1 to 10 µg/mL (≈ 2.94 to 29.4 µM) | > 10 µg/mL | < 1 µg/mL | < 1 µg/mL | > 10 µg/mL | 1 to 10 µg/mL (≈ 2.94 to 29.4 µM) | – | –
COc1ccccc1-n1c(SC(C)C)nc2cccc(OC)c2c1=O [Compound Example 4, 2-Isopropylsulfanyl-5-methoxy-3-(2-methoxy-phenyl)-3H-quinazolin-4-one] | < 1 µg/mL | < 1 µg/mL | < 1 µg/mL | < 1 µg/mL | < 1 µg/mL | 1 to 10 µg/mL (≈ 2.81 to 28.1 µM) | 1 to 10 µg/mL (≈ 2.81 to 28.1 µM) | > 10 µg/mL | < 1 µg/mL | < 1 µg/mL | 1 to 10 µg/mL (≈ 2.81 to 28.1 µM) | 1 to 10 µg/mL (≈ 2.81 to 28.1 µM) | 73 µM | 4.95 µM
